Measurements as given in PubChem BioAssay AID250 (DTP/NCI, 2004).
Several values for one entry are separate records, joined by “and”; a condition that tells them apart may be missing. Equal entries are not always repeated. Inconclusive results and toxic doses are left out.

Test system: BDF1 mice, L1210 leukemia sc, survival T/C
Experiment: NCI In Vivo Anticancer Drug Screen. Data for tumor model L1210 Leukemia (subcutaneous) in B6D2F1 (BDF1) mice
Conditions: endpoint: median survival time, higher = longer survival
Procedure, shortened: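 Read-out: T/C ratio, i.e. survival or tumor size in treated mice over that in vehicle-treated controls, from mice bearing transplantable tumors.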

SMILES: O=NN(CCCl)C(=O)NCCCl
- T/C (dose: 0.65 mg/kg/injection, schedule: Q01DX Z (sc), vehicle: methylcellulose (MC)): 115 % of control
- T/C (dose: 0.75 mg/kg/injection, schedule: Q01DX009 (ip), vehicle: saline): 110 % of control
- T/C (dose: 1.08 mg/kg/injection, schedule: Q## X Z (sc), vehicle: methylcellulose (MC)): 107 % of control
- T/C (dose: 1.5 mg/kg/injection, schedule: Q01DX009 (ip), vehicle: saline): 120 % of control
- T/C (dose: 1.8 mg/kg/injection, schedule: Q01DX Z (sc), vehicle: methylcellulose (MC)): 184 % of control
- T/C (dose: 1.8 mg/kg/injection, schedule: Q07DX Z (sc), vehicle: methylcellulose (MC)): 107 % of control
- T/C (dose: 1.8 mg/kg/injection, schedule: Q## X Z (sc), vehicle: methylcellulose (MC)): 115 % of control
- T/C (dose: 3.0 mg/kg/injection, schedule: Q01DX001 (ip), vehicle: saline): 119 % of control
- T/C (dose: 3.0 mg/kg/injection, schedule: Q01DX001 (iv), vehicle: saline): 123 % of control
- T/C (dose: 3.0 mg/kg/injection, schedule: Q01DX009 (ip), vehicle: saline): 190 % of control
- T/C (dose: 3.0 mg/kg/injection, schedule: Q01DX Z (oral), vehicle: saline): 205 % of control
- T/C (dose: 3.0 mg/kg/injection, schedule: Q01DX Z (sc), vehicle: methylcellulose (MC)): 223 % of control
- T/C (dose: 3.0 mg/kg/injection, schedule: Q07DX Z (sc), vehicle: methylcellulose (MC)): 115 % of control
- T/C (dose: 3.0 mg/kg/injection, schedule: Q## X Z (sc), vehicle: methylcellulose (MC)): 119 % of control
- T/C (dose: 3.0 mg/kg/injection, schedule: Q## X Z (sc), vehicle: saline): 123 % of control
- T/C (dose: 5.0 mg/kg/injection, schedule: Q01DX001 (sc), vehicle: saline): 115 % of control
- T/C (dose: 5.0 mg/kg/injection, schedule: Q01DX Z (oral), vehicle: saline): 521 % of control
- T/C (dose: 5.0 mg/kg/injection, schedule: Q01DX Z (sc), vehicle: methylcellulose (MC)): 200 % of control
- T/C (dose: 5.0 mg/kg/injection, schedule: Q07DX Z (sc), vehicle: saline): 120 % of control and 123 % of control
- T/C (dose: 5.0 mg/kg/injection, schedule: Q## X Z (sc), vehicle: methylcellulose (MC)): 173 % of control
- T/C (dose: 6.0 mg/kg/injection, schedule: Q01DX009 (ip), vehicle: saline): 210 % of control
- T/C (dose: 8.4 mg/kg/injection, schedule: Q01DX001 (ip), vehicle: saline): 233 % of control
- T/C (dose: 8.4 mg/kg/injection, schedule: Q01DX001 (iv), vehicle: saline): 247 % of control
- T/C (dose: 8.4 mg/kg/injection, schedule: Q01DX Z (oral), vehicle: saline): 284 % of control
- T/C (dose: 8.4 mg/kg/injection, schedule: Q01DX Z (sc), vehicle: methylcellulose (MC)): 188 % of control
- T/C (dose: 8.4 mg/kg/injection, schedule: Q07DX Z (sc), vehicle: methylcellulose (MC)): 161 % of control
- T/C (dose: 8.4 mg/kg/injection, schedule: Q07DX Z (sc), vehicle: other): 305 % of control
- T/C (dose: 8.4 mg/kg/injection, schedule: Q07DX Z (sc), vehicle: saline): 161 % of control and 210 % of control and 252 % of control
- T/C (dose: 8.4 mg/kg/injection, schedule: Q16DX002 (ip), vehicle: saline): 172 % of control
- T/C (dose: 8.4 mg/kg/injection, schedule: Q## X Z (sc), vehicle: methylcellulose (MC)): 250 % of control
- T/C (dose: 8.4 mg/kg/injection, schedule: Q## X Z (sc), vehicle: saline): 246 % of control
- T/C (dose: 10.0 mg/kg/injection, schedule: Q01DX001 (sc), vehicle: methylcellulose (MC)): 255 % of control
- T/C (dose: 10.0 mg/kg/injection, schedule: Q01DX001 (sc), vehicle: saline): 185 % of control
- T/C (dose: 10.8 mg/kg/injection, schedule: Q01DX001 (ip), vehicle: saline): 150 % of control
- T/C (dose: 10.8 mg/kg/injection, schedule: Q01DX001 (sc), vehicle: saline): 248 % of control and 250 % of control
- T/C (dose: 10.8 mg/kg/injection, schedule: Q07DX003 (sc), vehicle: saline): 274 % of control and 275 % of control
- T/C (dose: 14.0 mg/kg/injection, schedule: Q01DX001 (iv), vehicle: saline): 209 % of control
- T/C (dose: 14.0 mg/kg/injection, schedule: Q01DX Z (oral), vehicle: saline): 194 % of control
- T/C (dose: 14.0 mg/kg/injection, schedule: Q01DX Z (sc), vehicle: saline): 161 % of control and 273 % of control and 285 % of control
- T/C (dose: 14.0 mg/kg/injection, schedule: Q01HX002 (ip), vehicle: saline): 315 % of control
- T/C (dose: 14.0 mg/kg/injection, schedule: Q07DX Z (sc), vehicle: methylcellulose (MC)): 173 % of control
- T/C (dose: 14.0 mg/kg/injection, schedule: Q07DX Z (sc), vehicle: other): 88 % of control
- T/C (dose: 14.0 mg/kg/injection, schedule: Q07DX Z (sc), vehicle: saline): 200 % of control
- T/C (dose: 14.0 mg/kg/injection, schedule: Q16DX002 (ip), vehicle: saline): 315 % of control
- T/C (dose: 14.0 mg/kg/injection, schedule: Q## X Z (sc), vehicle: methylcellulose (MC)): 315 % of control
- T/C (dose: 14.0 mg/kg/injection, schedule: Q## X Z (sc), vehicle: saline): 315 % of control
- T/C (dose: 18.0 mg/kg/injection, schedule: Q01DX001 (ip), vehicle: saline): 181 % of control and 200 % of control
- T/C (dose: 18.0 mg/kg/injection, schedule: Q01DX001 (sc), vehicle: saline): 310 % of control and 352 % of control
- T/C (dose: 18.0 mg/kg/injection, schedule: Q07DX003 (sc), vehicle: saline): 645 % of control and 660 % of control
- T/C (dose: 20.0 mg/kg/injection, schedule: Q01DX001 (sc), vehicle: methylcellulose (MC)): 240 % of control
- T/C (dose: 20.0 mg/kg/injection, schedule: Q01DX001 (sc), vehicle: saline): 270 % of control
- T/C (dose: 23.0 mg/kg/injection, schedule: Q01DX001 (ip), vehicle: saline): 480 % of control
- T/C (dose: 23.0 mg/kg/injection, schedule: Q01DX001 (iv), vehicle: saline): 423 % of control
- T/C (dose: 23.0 mg/kg/injection, schedule: Q01DX Z (oral), vehicle: saline): 157 % of control
- T/C (dose: 23.0 mg/kg/injection, schedule: Q01HX002 (ip), vehicle: saline): 315 % of control
- T/C (dose: 23.0 mg/kg/injection, schedule: Q07DX Z (sc), vehicle: methylcellulose (MC)): 184 % of control
- T/C (dose: 23.0 mg/kg/injection, schedule: Q07DX Z (sc), vehicle: other): 555 % of control
- T/C (dose: 23.0 mg/kg/injection, schedule: Q07DX Z (sc), vehicle: saline): 438 % of control and 631 % of control and 645 % of control
- T/C (dose: 23.0 mg/kg/injection, schedule: Q16DX002 (ip), vehicle: saline): 315 % of control
- T/C (dose: 23.0 mg/kg/injection, schedule: Q## X Z (sc), vehicle: saline): 284 % of control
- T/C (dose: 24.0 mg/kg/injection, schedule: Q01DX009 (ip), vehicle: saline): 115 % of control
- T/C (dose: 30.0 mg/kg/injection, schedule: Q01DX001 (ip), vehicle: saline): 218 % of control and 483 % of control
- T/C (dose: 30.0 mg/kg/injection, schedule: Q01DX001 (sc), vehicle: saline): 410 % of control and 441 % of control
- T/C (dose: 30.0 mg/kg/injection, schedule: Q07DX003 (sc), vehicle: saline): 295 % of control and 303 % of control
- T/C (dose: 39.0 mg/kg/injection, schedule: Q01DX001 (ip), vehicle: saline): 309 % of control
- T/C (dose: 39.0 mg/kg/injection, schedule: Q07DX Z (sc), vehicle: other): 294 % of control
- T/C (dose: 39.0 mg/kg/injection, schedule: Q07DX Z (sc), vehicle: saline): 173 % of control and 315 % of control
- T/C (dose: 40.0 mg/kg/injection, schedule: Q01DX001 (sc), vehicle: methylcellulose (MC)): 230 % of control
- T/C (dose: 40.0 mg/kg/injection, schedule: Q01DX001 (sc), vehicle: saline): 195 % of control
- T/C (dose: 48.0 mg/kg/injection, schedule: Q01DX001 (ip), vehicle: saline): 292 % of control
- T/C (dose: 50.0 mg/kg/injection, schedule: Q01DX001 (ip), vehicle: saline): 475 % of control
- T/C (dose: 50.0 mg/kg/injection, schedule: Q01DX001 (sc), vehicle: saline): 205 % of control
- T/C (dose: 60.0 mg/kg/injection, schedule: Q01DX001 (ip), vehicle: saline): 124 % of control
- T/C (dose: 65.0 mg/kg/injection, schedule: Q01DX001 (oral), vehicle: saline): 114 % of control
- T/C (dose: 65.0 mg/kg/injection, schedule: Q07DX Z (sc), vehicle: other): 205 % of control
- T/C (dose: 80.0 mg/kg/injection, schedule: Q01DX001 (sc), vehicle: methylcellulose (MC)): 110 % of control
- T/C (dose: 80.0 mg/kg/injection, schedule: Q01DX001 (sc), vehicle: saline): 110 % of control
- T/C (dose: 108.0 mg/kg/injection, schedule: Q01DX001 (oral), vehicle: saline): 104 % of control
- T/C (dose: 120.0 mg/kg/injection, schedule: Q01DX001 (sc), vehicle: methylcellulose (MC)): 100 % of control
- T/C (dose: 120.0 mg/kg/injection, schedule: Q01DX001 (sc), vehicle: saline): 105 % of control
- T/C (dose: 180.0 mg/kg/injection, schedule: Q01DX001 (oral), vehicle: saline): 95 % of control
